Data set [1] relates to NCI-H358-derived xenograft tumor. Nature of the data set: Pharmacodynamics study of NCI-H358-derived xenograft tumor model, combination with Afatinib or Trametinib (test 10). Format: in vivo, nude mice. The note with it: i.g. QD×21 days, 3-2 10 mg/kg, Afatinib 10 mg/kg, Trametinib 0.1 mg/kg. As for the experimental part: Animal species and number: Balb/c Nude; 6 animals per group. Test samples: […] Test groups: blank solvent control group; […] NCI-H358 tumor cells in logarithmic growth phase were cultured in vitro and collected, and inoculated subcutaneously into the right back of nude mice at a quantity of 5×10^6 cells/each. When the tumor volume reached 150-300 mm^3, the tumor-bearing nude mice were randomly grouped. Subsequently, the animals in each group were administered, and the day of the first administration was defined as day 1 of the test. Administration frequency: once a day. General state observation: observation time and frequency: once a day; observation indexes or contents: including but not limited to administration location, appearance and signs, general behavioral activities, mental status, death and other abnormal performance of the animals. The animals were euthanized at the end of the test. Tumor volume calculation: V=½×long diameter×short diameter^2 (mm^3).

A further data set deals with MIA PaCa-2 cells. Nature of the data set: Cell proliferation activity of MIA PaCa-2 by CellTiter-Glo reagent. To be noted: 72 h, CellTiter-Glo; for pIC50: Homo sapiens, MIA PaCa-2, read-out: IC50 value of cell proliferation inhibitory activity of the compound on MIA PaCa-2. Format: cell-based. As for the experimental part:
MIA PaCa-2 cells in exponential growth phase were digested with trypsin-EDTA, plated in a 96-well plate with 2000-3000 cells per well, and incubated overnight at 37° C. with 5% CO2. Mother solutions were prepared from the test compounds by using DMSO, subjected to gradient elution with DMEM growth medium, and then added into the 96-well plate and incubated in an incubator for 72 h at 37° C. with 5% CO2. After the incubation, CellTiter-Glo test reagent with an equal volume was added into each well and the obtained 96-well plate was incubated after shaking. The chemiluminescence values were determined by microplate reader, and the IC50 values of the test compounds inhibiting the proliferation of MIA PaCa-2 cells were fitted and calculated by GraphPad Prism software.
The test method of inhibitory activity was the same as that in Test 2 in “Biological Tests” part.

In a further data set the test system is NCI-H358 cells. Nature of the data set: Cell proliferation activity of NCI-H358 by CellTiter-Glo reagent. Format: cell-based. How it is done:
NCI-H358 cells in exponential growth phase were digested with trypsin-EDTA, plated in a 96-well plate with 2000-3000 cells per well, and incubated overnight at 37° C. with 5% CO2. […] After the incubation, CellTiter-Glo test reagent with an equal volume was added into each well and the obtained 96-well plate was incubated after shaking. The chemiluminescence values were determined by microplate reader, and the IC50 values of the test compounds inhibiting the proliferation of NCI-H358 cells were fitted and calculated by GraphPad Prism software.
The test method of inhibitory activity was the same as that in Test 3 in “Biological Tests” part.

Data set [2] deals with MIA PaCa-2-derived xenograft tumor. Nature of the data set: Pharmacodynamics test of MIA PaCa-2-derived xenograft tumor model in nude mice (test 6). Type of data set: in vivo. How it is done: Animal species and number: Balb/c Nude; 6 animals per group.
Test samples: Compound 3-2, Compound 3-6, Compound 3-20, Compound 3-12M.
Test groups: blank solvent control group; Compound 3-2 (10 mg/kg, QD×15 days), Compound 3-6 (10 mg/kg, QD×15 days), Compound 3-20 (10 mg/kg, QD×15 days), Compound 3-12M (10 mg/kg, QD×15 days).
Animal model establishment: MIA paca-2 tumor cells in logarithmic growth phase were cultured in vitro and collected, and inoculated subcutaneously into the right back of nude mice at a quantity of 5×10^6 cells/each. When the tumor volume reached 150-300 mm^3, the tumor-bearing nude mice were randomly grouped. Subsequently, the animals in each group were administered, and the day of the first administration was defined as day 1 of the test.
Administration route and frequency: oral administration by gavage; once a day.
General state observation: observation time and frequency: once a day; observation indexes or contents: including but not limited to administration location, appearance and signs, general behavioral activities, mental status, death and other abnormal performance of the animals. The animals were euthanized at the end of the test.
Tumor volume calculation: V=½×long diameter×short diameter^2 (mm^3). Tumor growth inhibition rate TGI (%) is used to evaluate the tumor inhibition efficacy of the compounds. TGI (%)=[1−(mean tumor volume in treatment group at the end of administration−mean tumor volume in treatment group at the beginning of administration)/(mean tumor volume in control group at the end of administration−mean tumor volume in control group at the beginning of administration)]×100%.

For the next data set, the target named is KRAS G12C (Homo sapiens, UniProt P01116, G12C). Briefly: Effect on KRAS(G12C) enzyme activity (KRAS G12C/c-Raf binding, Eu/d2 energy transfer). Format: biochemical. How it is done:
Compound stock solution was taken, and the test compound was subjected to gradient elution in DMSO. The above diluted compound was added into a quantitative volume of enzyme reaction buffer and subjected to oscillation on a microplate oscillator for 20 min.
4 μL of enzyme was transferred to a 384-well reaction plate. 1 μL of the test compound was added into the 384-well reaction plate. The plate was sealed with sealing film, and the reaction plate with the compound was centrifuged at 1000 rpm for 1 min and incubated for 60 min. 5 μL of a mixture of substrate and antibody was transferred to the 384-well reaction plate. The plate was sealed with sealing film, then centrifuged at 1000 rpm for 1 min and incubated for 120 min at room temperature.
Ratiopositive control: average value of the ratios of 10 positive control wells; Rationegative control: average value of the ratios of 10 negative control wells.

Another data set has as its system NCI-H358. Nature of the data set: Cell proliferation inhibitory activity on NCI-H358, 3D model test (agarose colony formation). Format: cell-based. The note with it: for pIC50: Homo sapiens, NCI-H358, 3D agarose colony formation, NBT staining. How it is done: 100 μl of agarose gel with a high concentration was spread in a 96-well plate as the bottom agarose gel layer. Agarose with a low concentration and growth medium containing cells were mixed and then spread on the bottom agar layer, cooled and solidified, then incubated overnight at 37° C. Mother solutions were prepared from the test compounds by using DMSO, and then subjected to gradient elution with RPMI 1640 growth medium. The solutions of test compounds with different concentrations after gradient elution were added to the 96-well plate comprising an upper layer of agar gel-cells. Solvent control well was set up and the plate was incubated in a CO2 incubator. The drug-containing medium was changed during the incubation period and the cell growth situation was observed. After the incubation, the cells were stained with NBT and the number of cell colony formation was counted, and the IC50 values of the compounds inhibiting cell proliferation were derived.

Data set [3] can be described thus: Preliminary safety test, 5-day escalating oral dosing in Balb/c mice. Format: in vivo. To be noted: for water and food intake, activity and body weight during the administration period (in words): oral gavage once a day for 5 days, 200 to 800 mg/kg. How it is done: Test samples: Compound 3-2, Compound 3-6, Compound 3-12M, Compound 3-20, and Compound 4-8.
Animal species and number: Balb/c; 6 animals per group (half male and half female).
Administration mode: oral administration by gavage.
Animal grouping and administration dose: vehicle blank group, Compound 3-2 group (200 mg/kg, 400 mg/kg, 800 mg/kg), Compound 3-6 group (200 mg/kg, 400 mg/kg, 800 mg/kg), Compound 3-12M group (200 mg/kg, 400 mg/kg, 800 mg/kg), Compound 3-20 group (200 mg/kg, 400 mg/kg, 800 mg/kg), Compound 4-8 group (200 mg/kg, 400 mg/kg, 800 mg/kg).
Administration frequency: once a day for 5 days.
General clinical observations were performed 2 times a day (once in the morning and once in the afternoon) during the test period. Death, morbidity, respiration, secretions, feces, and diet, drinking situation and so on were observed, and the changes in body weight of the mice during the administration period were recorded. The animals in each group were euthanized after the administration, and all animals were dissected and subjected to gross observation.

pIC50: −log10 of the molar value.

Chain of KRAS G12C (P01116 1-188 isoform P01116-2 G12C): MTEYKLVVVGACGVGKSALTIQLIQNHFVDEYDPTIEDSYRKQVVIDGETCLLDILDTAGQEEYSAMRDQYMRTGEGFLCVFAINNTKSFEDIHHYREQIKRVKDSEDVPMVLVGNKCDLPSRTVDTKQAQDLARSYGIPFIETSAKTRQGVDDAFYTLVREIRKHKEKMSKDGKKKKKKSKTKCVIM

On to `CN(C)C/C=C/C(=O)Nc1cc2c(Nc3ccc(F)c(Cl)c3)ncnc2cc1O[C@H]1CCOC1` [Afatinib], for which the “Tumor inhibition rate (%)” value in data set [1] was “+ (“+” represents a tumor inhibition rate of <130%)”.

With `[2H]C([2H])=Cc1cccc(F)c1-c1nc2c(cc1Cl)c(N1CCN(C(=O)C=C)C[C@@H]1C)nc(=O)n2-c1c(C)ccnc1C(C)C` [Compound 3-20], the “anti-cell proliferation activity against KRAS G12C mutant type cells MIA PaCa-2 (in words)” value in the data set on MIA PaCa-2 cells is “significant anti-cell proliferation activity”. For the same compound, the pIC50 in the data set on MIA PaCa-2 cells is > 7.30; in the data set on NCI-H358 cells (Homo sapiens, NCI-H358, test 8, method of test 3, read-out: IC50 of proliferation inhibitory activity of the compound on NCI-H358 cell line) it was 8.00; on KRAS G12C (60 min incubation with enzyme, read-out: IC50 value of the compound on KRAS G12C enzyme activity), 7.72; with NCI-H358, > 7.30. Further, the “cell proliferation inhibitory activity of NCI-H358 compared with AMG510 (in words)” value in the data set on NCI-H358 cells (test 8) was “better than AMG510”. Also, the “inhibition effect on the growth of subcutaneously transplanted tumors derived from pancreatic cancer MIA paca-2 cells in nude mice (in words)” value in data set [2] (10 mg/kg QD×15 days) is “significant inhibition effect”. The “Tumor inhibition rate (%)” value in data set [2] (MIA PaCa-2 xenograft, nude mice, 10 mg/kg oral gavage QD×15 days) is reported as “+++ (“+++” represents a tumor inhibition rate of >80%)”. Besides, on KRAS G12C, the “inhibitory activity on KRAS G12C enzyme compared with AMG510 (in words)” value is “remarkable better”. For the same compound, the “anti-cell proliferation activity against KRAS G12C mutant type cells NCI-H358 (in words)” value in the data set with NCI-H358 (3D model test) is “significant anti-cell proliferation activity”. For the same compound, the “water and food intake, activity and body weight during the administration period (in words)” value in data set [3] was “no significant abnormality was showed”.

As for `[2H]C([2H])=Cc1ccccc1-c1nc2c(cc1Cl)c(N1CCN(C(=O)C=C)C[C@@H]1C)nc(=O)n2-c1c(C)ccnc1C(C)C` [Compound 3-24], the pIC50 with MIA PaCa-2 cells and with NCI-H358 was > 7.30 in each case.

`[2H]C([2H])=Cc1cccc(F)c1-c1nc2c(cc1F)c(N1CCN(C(=O)C=C)C[C@@H]1C)nc(=O)n2-c1c(C([2H])([2H])[2H])ccnc1C(C)C` [Compound 4-3]: the pIC50 with MIA PaCa-2 cells and with NCI-H358 was > 7.30 in each case.

Turning to `[2H]C([2H])=Cc1ccccc1-c1nc2c(cc1Cl)c(N1CCN(C(=O)C=C)C[C@@H]1C)nc(=O)n2-c1c(C([2H])([2H])[2H])ccnc1C(C)C` [Compound 4-8], the pIC50 in the data set with MIA PaCa-2 cells and with NCI-H358 was > 7.30 throughout. Further, the MTD at 5 days in data set [3] (both sexes, mouse, in vivo, oral gavage, 5 days, initially suggested, read-out: maximum tolerated dose) was > 800 mg/kg. Besides, the “water and food intake, activity and body weight during the administration period (in words)” value in data set [3] was “no significant abnormality was showed”.

For `[2H]C([2H])([2H])c1ccnc(C(C)C)c1-n1c(=O)nc(N2CCN(C(=O)C=C)C[C@@H]2C)c2cc(F)c(-c3ccccc3C=C)nc21` [Compound 4-23], the pIC50 in the data set with MIA PaCa-2 cells and in the data set with NCI-H358 was > 7.30 in each case.

For the compound `[2H]C([2H])=Cc1cccc(F)c1-c1nc2c(cc1F)c(N1CCN(C(=O)C=C)C[C@@H]1C)nc(=O)n2-c1c(C(C)C)ccnc1C(C)C` [Compound 5-3], the pIC50 in the data set with MIA PaCa-2 cells and with NCI-H358 was > 7.30 throughout.

Take `[2H]C([2H])=Cc1ccccc1-c1nc2c(cc1Cl)c(N1CCN(C(=O)C=C)C[C@@H]1C)nc(=O)n2-c1c(C(C)C)ccnc1C(C)C` [Compound 5-8]: the pIC50 with MIA PaCa-2 cells and with NCI-H358 was > 7.30 each time.

With `C=CC(=O)N1CCN(c2nc(=O)n(-c3c(C(C)C)ccnc3C(C)C)c3nc(-c4ccccc4C=C)c(Cl)cc23)[C@@H](C)C1` [Compound 5-24], the pIC50 in the data set with MIA PaCa-2 cells and in the data set on NCI-H358 was > 7.30 each time.

Regarding `CC(=O)Nc1cccc(-n2c(=O)n(C3CC3)c(=O)c3c(Nc4ccc(I)cc4F)n(C)c(=O)c(C)c32)c1` [Trametinib], the “Tumor inhibition rate (%)” value in data set [1] is “+ (“+” represents a tumor inhibition rate of <130%)”.

The record behind these values is patent publication US20230143751A1, “Aromatic Compound And Use Thereof In Preparing Antineoplastic Drugs” (Shanghai Zheye Biotechnology Co. Ltd., priority 2020, published 2023).
